The values that follow come from patent US20210278402A1, “METHOD FOR TESTING OF ANTIBIOTIC SUSCEPTIBILITY IN MICROORGANISMS” (MODULE INNOVATIONS PRIVATE LIMITED, priority 2018, published 2021).

Test [1] relates to E. coli. Nature of the test: Antibiotic susceptibility testing by the method of the present invention (AuNP-GOx-Ab nanoprobes, absorbance at 545 nm). Conditions: for Interpretation of results of the present method: Patient two urine sample infected with E. coli (10^4 CFU/mL), antibiotic at EUCAST breakpoint concentration of Table 1. The format is cell-based. As for the experimental part: (§1) 250 μL of urine sample was mixed with 250 μL of 2× Mueller-Hinton broth in autoclaved Eppendorf tubes. Respective concentrations of antibiotics as recited in Table 1 were added in each tubes along with one tube without antibiotic which served as a control for monitoring the growth of bacteria. 7-10 μL of the nanoprobes (AuNP-GOx-Ab) prepared in the Example 2 above was added to the mixture and allowed to incubate at 37° C. for 90 minutes to allow growth of bacteria. The solution was then passed through a membrane filter with a pore size of about 450 nm diameter to separate the bacteria bound to the nanoprobes from the unbound ones. The bacteria bound nanoprobes (nanoprobe-bacteria complex) captured on the membrane surface were then recovered by injecting 250 μL of sodium acetate buffer (10 mM, pH 5.1) from the opposite direction.
(§2) 250 μL of the recovered bacteria-nanoprobe complexes were then incubated at 37° C. for 10 minutes with 50 μL glucose solution (final concentration 100 mM) for production of hydrogen peroxide. After 10 minutes, 150 μL of seed solution containing about 16 nM gold nanoparticles having about 5 nm size and 150 μL of 1.25 mM HAuCl4 solution was added to induce growth of the seed particles and left for 20 minutes to allow growth of the seed particle. Finally, the growth of seed nanoparticles and the intensity of colour formed were determined by recording an absorption spectrum for each sample.
(§3) MIC determination protocol was tested on other antibiotics-bacteria combinations as well and percent reduction criterion was determined for each pair from repeated tests.

Test [2] has as its system K. pneumoniae. The description is as above. The format is cell-based. Conditions: for MIC: Klebsiella pneumoniae, MIC = dilution showing the criterion % reduction compared to no antibiotics (34% levofloxacin, 23% amikacin), read-out: MIC obtained with the diagnostic method assay; for Interpretation of results of the present method: Patient two urine sample infected with K. pneumoniae, antibiotic at EUCAST breakpoint concentration of Table 1. The procedure:
as §1
as §2, with “sample. FIG. 8(a) provides graphic representation of UV-Visible spectra for antibiotic sensitivity test of patient urine samples with different antibiotics, according to an embodiment of the present invention.” for “sample.”
The antibacterial susceptibility test of patient two urine sample containing K. pneumoniae towards the antibiotics ampicillin, gentamicin, levofloxacin and imipenem was performed as mentioned above.
as §3

The subject of test [3] is E. coli. As to the kind of experiment: CLSI reference method of microdilution. The format is cell-based. Particulars: for MIC: Escherichia coli.
Test [4] has as its system K. pneumoniae. Nature of the test: CLSI reference method of microdilution. The format is cell-based. Conditions: for MIC: Klebsiella pneumoniae; for Interpretation by Microdilution: EUCAST breakpoints.
The subject of test [5] is P. aeruginosa. Nature of the test: CLSI reference method of microdilution. It counts as cell-based. Conditions: for MIC: Pseudomonas aeruginosa, patient two sample infected with P. aeruginosa, read-out: MIC reported by Microdilution.
The test system of test [6] is E. coli. Nature of the test: VITEK automated susceptibility test. It counts as cell-based. Particulars: for MIC: Escherichia coli, read-out: MIC reported by VITEK. The text has this:
(§4) The AST market has several products based on the method they employ for testing that include automated systems, discs, MIC strips and media. Most extensively used method to determine antibiotic susceptibility involve culture tests based on the phenotypic growth of the bacteria, which require three days to arrive at the conclusion (Puttaswamy S. et al., 2018). Although culture-based growth methods are the most widely used systems for AST, a few sophisticated high-end labs and hospitals employ automated test machines such as Vitek 2.0 from Biomeriux Technologies, Phoenix from BD etc. These instruments work on the measurement of light attenuation by optical scanner for growth/no growth of bacteria in micro-wells with different antibiotics.

In test [7] the test system is P. aeruginosa. As to the kind of experiment: VITEK automated susceptibility test. The format is cell-based. Particulars: for MIC: Pseudomonas aeruginosa, patient two sample infected with P. aeruginosa, read-out: MIC reported by VITEK.
Excerpt: as §4

Test [8] deals with E. faecalis. Nature of the test: Antibiotic susceptibility testing by the method of the present invention (AuNP-GOx-Ab nanoprobes, absorbance at 545 nm). Conditions: Patient two sample infected with E. faecalis, antibiotic at EUCAST breakpoint concentration of Table 1. It counts as cell-based. As for the experimental part: as §1
(§5) 250 μL of the recovered bacteria-nanoprobe complexes were then incubated at 37° C. for 10 minutes with 50 μL glucose solution (final concentration 100 mM) for production of hydrogen peroxide. […] Finally, the growth of seed nanoparticles and the intensity of colour formed were determined by recording an absorption spectrum for each sample. […]

Test [9] deals with E. faecalis. As to the kind of experiment: CLSI reference method of microdilution. Particulars: for MIC: Enterococcus faecalis, read-out: MIC reported by Microdilution.
Test [10] has as its system K. pneumoniae. Nature of the test: VITEK automated susceptibility test. It counts as cell-based. Particulars: for MIC: Klebsiella pneumoniae, patient two urine sample infected with K. pneumoniae, read-out: MIC reported by VITEK.
Excerpt: as §4

The conditions of test [11]: glucose 100 mM, 37° C., 10 minutes. The procedure:
Varying concentrations of GOx, namely, 6 mU, 10 mU and 30 mU and glucose (100 mM) were incubated at 37° C. for 10 minutes and the hydrogen peroxide produced was determined using a H2O2 assay kit (MAK165-SIGMA-ALDRICH).

In test [12] the test system is multi-drug resistant P. aeruginosa. Nature of the test: Antibiotic susceptibility testing by the method of the present invention (AuNP-GOx-Ab nanoprobes, absorbance at 545 nm). The format is cell-based. Particulars: Patient two sample infected with multi-drug resistant P. aeruginosa, antibiotic at EUCAST breakpoint concentration of Table 1. As for the experimental part:
as §1, §5

Where [13] appears, read: Patient one urine sample infected with E. coli.
[14] abbreviates: Clinical isolate K. pneumoniae, read-out: MIC obtained with CLSI reference method of microdilution.
[15] abbreviates: patient two urine sample infected with E. coli.
Where [16] appears, read: patient two urine sample infected with K. pneumoniae, read-out: MIC reported by Microdilution.
Where [17] appears, read: Patient two urine sample infected with K. pneumoniae.
Where [18] appears, read: Patient two sample infected with P. aeruginosa.

Values after ≈ are worked out from the molar mass of the structure shown. Where two headings read alike, the source gives them in different places. A value given as a limit tells only on which side of the number the result lay.

For `C[C@H]1COc2c(N3CCN(C)CC3)c(F)cc3c(=O)c(C(=O)O)cn1c23` [Levofloxacin], the “MIC (concentration at which signal intensity shows 34% reduction against the control)” value in test [1] (E. coli as printed in text, present method, 34% reduction criterion) was found to be 16 µg/mL. The MIC in test [2] (Clinical isolate K. pneumoniae) was 16 µg/mL; in [3] (patient two urine sample infected with E. coli, read-out: MIC reported by Microdilution), 64 µg/mL (≈ 177 µM); in test [4] (setting [14]), 16 µg/mL (≈ 44.3 µM); in [5] it was at least 32 µg/mL; in test [6] (setting [15]), at least 8 µg/mL; in test [7], at least 8 µg/mL. For the same compound, the “MIC reported by Microdilution” value in test [3] (setting [13]) stood at 64 µg/mL (≈ 177 µM). For the same compound, in test [6] (setting [13]), the “MIC reported by VITEK” value was “>=8 μg/mL”.
With `CN[C@H](CC(C)C)C(=O)N[C@H]1C(=O)N[C@@H](CC(N)=O)C(=O)N[C@H]2C(=O)N[C@H]3C(=O)N[C@H](C(=O)N[C@H](C(=O)O)c4cc(O)cc(O)c4-c4cc3ccc4O)[C@H](O)c3ccc(c(Cl)c3)Oc3cc2cc(c3O[C@@H]2O[C@H](CO)[C@@H](O)[C@H](O)[C@H]2O[C@H]2C[C@](C)(N)[C@H](O)[C@H](C)O2)Oc2ccc(cc2Cl)[C@H]1O` [Vancomycin], the results for the “Interpretation of results of the present method” value in [8] and in test [8] (listed as vancomycin) were “Sensitive” and “sensitive”, respectively. In test [9], the MIC came to 1 µg/mL (≈ 0.69 µM). Moreover, the “Interpretation by Microdilution” value in [9] (Patient two sample infected with E. faecalis, EUCAST breakpoints) is given as “Sensitive”.
In the case of `CC1(C)S[C@@H]2[C@H](NC(=O)[C@H](N)c3ccccc3)C(=O)N2[C@H]1C(=O)O` [Ampicillin], the “Interpretation of results of the present method” value in [1] is listed as “Sensitive”; in test [1] (listed as ampicillin) it was “sensitive”; in [2], “Resistant”; in test [2] (listed as ampicillin) it was “resistant”. Further, the “Interpretation by Microdilution” value is recorded as “Sensitive” in test [3] (Patient two urine sample infected with E. coli, EUCAST breakpoints) and “Resistant” in test [4] (setting [17]). For the same compound, the MIC in test [4] (setting [16]) was 256 µg/mL (≈ 733 µM); in test [10] it was over 16 µg/mL. Further, the “Interpretation by VITEK” value in test [10] (setting [17]) is given as “Resistant”.
`NCC[C@H](O)C(=O)N[C@@H]1C[C@H](N)[C@@H](O[C@H]2O[C@H](CN)[C@@H](O)[C@H](O)[C@H]2O)[C@H](O)[C@H]1O[C@H]1O[C@H](CO)[C@@H](O)[C@H](N)[C@H]1O` [Amikacin]: in test [2] (Clinical isolate K. pneumoniae), the “Interpretation by diagnostic method” value is “Resistant” and the MIC worked out at 128 µg/mL. Also, in test [4] (Clinical isolate K. pneumoniae), the “Interpretation by CLSI reference method of microdilution” value is reported as “Resistant”. Moreover, the minimal inhibitory concentration (MIC) in test [4] (setting [14]) was determined as 128 µg/mL (≈ 219 µM).
With `C[C@@H](O)[C@H]1C(=O)N2C(C(=O)O)=C(SCCN=CN)C[C@H]12` [Imipenem], the MIC in test [1] (Escherichia coli, Clinical isolate E. coli, MIC = dilution showing the criterion % reduction compared to no antibiotics (55% for imipenem), read-out: MIC obtained with the diagnostic method assay) was 0.125 µg/mL; in test [3] (Clinical isolate E. coli, read-out: MIC obtained with CLSI reference method of microdilution), 0.25 µg/mL (≈ 0.835 µM); in [3] (patient one urine sample infected with E. coli, read-out: MIC reported by Microdilution) it was 0.25 µg/mL (≈ 0.835 µM); in [4] (setting [16]), 0.125 µg/mL (≈ 0.418 µM); in [5], at least 32 µg/mL; in [6] (patient one urine sample infected with E. coli), at most 0.25 µg/mL. The MIC is at most 0.25 µg/mL in test [10], at least 16 µg/mL in [7] and 0.5 µg/mL (≈ 1.67 µM) in test [9].
With `O=C1CN(/N=C/c2ccc([N+](=O)[O-])o2)C(=O)N1` [Nitrofurantoin], the MIC in test [6] (setting [15]) was at most 32 µg/mL.
Regarding glucose oxidase [GOx], the figures for the H2O2 generated in test [11] (6 mU GOx), in test [11] (10 mU GOx) and in test [11] (30 mU GOx) were 60.76 ± 7.6 µM, 113.46 ± 48.1 µM and 166.25 ± 5.3 µM, respectively.
As for Gentamicin, the “Interpretation of results of the present method” value is “Sensitive” in test [2], “sensitive” in [2] (listed as gentamicin), “Resistant” in [12] and “resistant” in [12] (listed as gentamicin). Further, the results for the “MIC reported by Microdilution” value in [4] (setting [17]) and in test [5] (setting [18]) were 0.5 µg/mL and “>=32 μg/mL”, respectively. Also, the “Interpretation by Microdilution” value in test [4] (setting [17]) is given as “Sensitive”; in test [5] (Patient two sample infected with P. aeruginosa, EUCAST breakpoints) it was “Resistant”. Moreover, the “Interpretation by VITEK” value in test [10] (setting [17]) is “Sensitive”; in [7] (setting [18]) it was “Resistant”. In addition, the entries for the “MIC reported by VITEK” value in [10] (setting [17]) and in test [7] (setting [18]) were “<=1 μg/mL” and “>=16 μg/mL”, respectively.
